From publication PMC5360941, “Simultaneous Determination and Pharmacokinetic Study of Quercetin, Luteolin, and Apigenin in Rat Plasma after Oral Administration of Matricaria chamomilla L. Extract by HPLC-UV” (Evidence-based Complementary and Alternative Medicine : eCAM, 2017)

Experiments:
[1] = Stability of the analytes in rat plasma (QC samples under different storage conditions); assay type: in vitro ADME; settings: for Stability in plasma (in words): plasma stored at 20°C for 24 h, −20°C for 30 days, and after three freeze-thaw cycles, low, medium, high concentrations, stable = 85–115% of initial; for Freeze-thaw stability, found conc. / Short-term stability, found conc. / Long-term stability, found conc.: rat plasma, n = 6; for Freeze-thaw stability, found conc.: 3 freeze-thaw cycles; for Short-term stability, found conc.: 24 h at room temperature; for Long-term stability, found conc.: 30 days at −20°C
Protocol: QC samples were prepared in the same way as the calibration samples, representing three different level concentrations (low, medium, and high) of quercetin in plasma at 0.57, 2.84, and 9.09 μg/ml, luteolin at 0.56, 2.80, and 8.96 μg/ml, and apigenin at 0.53, 2.65, and 8.48 μg/ml, respectively. The stability of the analytes in plasma was investigated by determining QC plasma samples of the three concentration levels under different storage conditions: 24 h at room temperature, three freeze (−20°C) and thaw (room temperature) cycles, stored at −20°C for 30 days. They were considered stable when 85–115% of the initial concentrations were got. All stability testing QC samples were determined by using the calibration curve of freshly prepared standard samples.

[2] = Pharmacokinetic study in rats after oral administration of M. chamomilla extract (HPLC-UV of plasma); assay type: in vivo, Male Sprague-Dawley rats; settings: oral M. chamomilla extract (quercetin 8.51 mg/kg, luteolin 56.49 mg/kg, apigenin 13.82 mg/kg), mean ± SD; for AUC(0-inf) / AUC(0-t) / Cmax / Tmax / half-life: male, Sprague-Dawley, rat; for AUC(0-inf) / T1/2, elimination half-life: n = 6; for AUC(0-t): n = 6, read-out: AUC0–12; for Cmax: n = 6, read-out: Cmax, maximum plasma concentration; for Tmax: noncompartmental, n = 6, read-out: Tmax, time to reach the maximum plasma concentration; for half-life: po, n = 6, read-out: T1/2, elimination half-life (converted)
Protocol: All analyses were performed on a Shimadzu HPLC system, equipped with LC-20AT pump, a Shimadzu SCL-10A system controller, and a SPD-20A DAD-UV detector. The HPLC analysis was performed on an Agilent Eclipse XDB-C18 column (250 mm × 4.6 mm, 5 μm) with a mobile phase consisting of methanol and 0.2% phosphoric acid (50 : 50, v/v) with a constant rate of 1.0 ml/min. The injection volume was 10 μl and the column temperature was set at 25°C. The wavelength was set at 350 nm for quantitative analysis; the proportion of components in the mobile phase was optimized to obtain a well separation of quercetin, luteolin, apigenin, and kaempferol (IS).
An aliquot of 100 μL rat plasma was transferred to a 1.5 mL plastic tube to which was added 10 μL IS (22.52 μg/ml) for processing. After being vortex-mixed for 30 seconds, the plasma sample was then extracted with 800 μl of ethyl acetate and centrifuged at 18000g for 10 min, where ethyl acetate acted as a deproteinization-extraction agent. The procedure of extraction was performed two times. The organic layer was dried at 40°C under nitrogen stream. The residue was reconstituted in 100 μL of methanol solution, vortexed for 1 min, and centrifuged at 18000g for 10 min. The supernatant transferred to a glass insert, and 10 μL of the sample was injected into the HPLC column for analysis. The method of sample preparation was also applied for determination of accuracy, precision, and recovery.
Male Sprague-Dawley rats (body weight 160 ± 20 g) were purchased from Beijing Vital River Laboratory Animal Technology (Beijing, China). Rats were housed in a temperature- and humidity-controlled environment (25°C, 65% RH) and maintained on a 12-hour light/dark cycle for 3 days with free access to food and water before starting the experiment. The animal experiments were performed in accordance with the principles of the International Guide for the Care and Use of Laboratory Animals and were approved by the Committee on Animal Care and Usage of the Beijing University of Chinese Medicine (number SYXK 2011-0024).
The extracts of M. chamomilla (quercetin was 8.51 mg/kg, luteolin was 56.49 mg/kg, and apigenin was 13.82 mg/kg) freshly prepared in 0.5% CMC-Na solution were orally administered to six rats. Blood samples (0.5 mL) were collected from the ocular fundus veins of rats before administration and after 10, 20, 30, and 45 min and 1, 1.5, 2, 4, 6, 8, and 12 h after oral administration of M. chamomilla extract. The plasma was immediately centrifuged at 3200g for 10 min to separate out plasma and then stored frozen at −20°C until analysis.
The pharmacokinetic parameters of quercetin, luteolin, and apigenin were calculated by Kinetica 4.4 software (Thermo Scientific, USA). Noncompartmental analysis was used to determine standard pharmacokinetic parameters of analytes. All the results were expressed as means ± standard deviation (SD) of six replicates.

[3] = high QC (spiked 9.09 quercetin, 8.96 luteolin, 8.48 apigenin μg/ml)
[4] = low QC (spiked 0.57 quercetin, 0.56 luteolin, 0.53 apigenin μg/ml)
[5] = medium QC (spiked 2.84 quercetin, 2.80 luteolin, 2.65 apigenin μg/ml)

| Stability in plasma (in words) [1] | Freeze-thaw stability, found conc. [1, 3] [µg/mL] | Freeze-thaw stability, found conc. [1, 4] [µg/mL] | Freeze-thaw stability, found conc. [1, 5] [µg/mL] | Short-term stability, found conc. [1, 3] [µg/mL] | Short-term stability, found conc. [1, 4] [µg/mL] | Short-term stability, found conc. [1, 5] [µg/mL] | Long-term stability, found conc. [1, 3] [µg/mL] | Long-term stability, found conc. [1, 4] [µg/mL] | Long-term stability, found conc. [1, 5] [µg/mL] | AUC(0-inf) [2] [ng·h/mL] | AUC(0-t) [2] [ng·h/mL] | Cmax [2] [ng/mL] | Tmax [2] [h] | half-life [2] [h] | T1/2, elimination half-life [2] [h] | Compound |
| --- | --- | --- | --- | --- | --- | --- | --- | --- | --- | --- | --- | --- | --- | --- | --- | --- |
| stable | 7.87 ± 0.50 | 0.48 ± 0.02 | 2.60 ± 0.14 | 8.31 ± 0.72 | 0.50 ± 0.04 | 2.64 ± 0.16 | 8.27 ± 0.62 | 0.46 ± 0.04 | 2.61 ± 0.13 | 5030 ± 1720 | 2910 ± 740 | 420 ± 110 | ~0.51 | ~8.82 | 8.82 ± 4.15 | O=c1cc(-c2ccc(O)cc2)oc2cc(O)cc(O)c12 [Apigenin, apigenin] |
| stable | 8.56 ± 0.54 | 0.62 ± 0.02 | 2.91 ± 0.15 | 8.96 ± 0.76 | 0.62 ± 0.01 | 2.94 ± 0.14 | 8.99 ± 0.65 | 0.61 ± 0.03 | 2.92 ± 0.15 | 19900 ± 5060 | 16000 ± 2380 | 3040 ± 600 | ~0.42 | ~4.43 | 4.43 ± 1.84 | O=c1cc(-c2ccc(O)c(O)c2)oc2cc(O)cc(O)c12 [Luteolin, luteolin] |
| stable | 9.24 ± 0.55 | 0.63 ± 0.01 | 3.09 ± 0.09 | 9.15 ± 0.69 | 0.63 ± 0.01 | 3.09 ± 0.18 | 9.59 ± 0.53 | 0.62 ± 0.03 | 3.10 ± 0.16 | 3880 ± 1000 | 1790 ± 290 | 290 ± 60 | ~0.79 | ~13.6 |  | O=c1c(O)c(-c2ccc(O)c(O)c2)oc2cc(O)cc(O)c12 [Quercetin, quercetin] |
